molecular target: T1, TGFβ R1 (Homo sapiens, UniProt P36897); test: TGFβ R1 autophosphorylation protocol (33P-ATP, phosphocellulose filter plate); assay type: biochemical; conditions: 10 uM ATP, 170 nM TGFβ R1, 20 minutes at room temperature, read-out: IC50 for Kinase Inhibition
T1 sequence (P36897 34-503): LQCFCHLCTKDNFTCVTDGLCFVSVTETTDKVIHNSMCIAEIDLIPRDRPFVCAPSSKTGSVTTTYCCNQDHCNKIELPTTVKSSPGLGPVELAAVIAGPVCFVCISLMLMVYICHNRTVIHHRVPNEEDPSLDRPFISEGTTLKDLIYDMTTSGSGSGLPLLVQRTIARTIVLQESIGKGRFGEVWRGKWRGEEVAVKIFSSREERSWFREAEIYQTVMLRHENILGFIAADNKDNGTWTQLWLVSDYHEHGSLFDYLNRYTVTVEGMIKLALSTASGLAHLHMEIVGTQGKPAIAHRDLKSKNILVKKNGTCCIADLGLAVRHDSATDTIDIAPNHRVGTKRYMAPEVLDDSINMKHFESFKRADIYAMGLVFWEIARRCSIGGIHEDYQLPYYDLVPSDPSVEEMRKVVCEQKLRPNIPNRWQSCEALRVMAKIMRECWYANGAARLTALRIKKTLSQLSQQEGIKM
Summary of the method: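 Incorporation of 33P from γ-33P-ATP (10 uM ATP final) into the kinase itself (170 nM) measured by phosphocellulose capture and scintillation counting. Incubation 20 min at room temperature in 20 mM MOPS pH 7 with […]; final DMSO ≤1%.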

SMILES	IC50 [nM]
O=C(NC1CC1)c1cnccc1Nc1nc(-c2cc(Cl)ccc2F)ncc1Cl [Compound 92, 4-[5-Chloro-2-(5-chloro-2-fluoro-phenyl)-pyrimidin-4-ylamino]-N-cyclopropyl-nicotinamide]	130
COC[C@H]1OC(CCNCCCNC(=O)c2cnccc2Nc2nc(-c3cc(Cl)ccc3F)ncc2OC)[C@H](OC)[C@@H](OC)[C@@H]1OC (some centres unmarked) [Compound 124, 4-[2-(5-Chloro-2-fluoro-phenyl)-5-methoxy-pyrimidin-4-ylamino]-N-{3-[2-(3,4,5-trimethoxy-6-methoxymethyl-tetrahydro-pyran-2-yl)-ethylamino]-propyl}-nicotinamide]	42
COc1cnc(-c2cc(Cl)ccc2F)nc1Nc1ccncc1C(=O)NCCCNCCC1O[C@H](CO)[C@@H](O)[C@H](O)[C@H]1O (some centres unmarked) [Compound 127, 4-[2-(5-Chloro-2-fluoro-phenyl)-5-methoxy-pyrimidin-4-ylamino]-N-{3-[2-(3,4,5-trihydroxy-6-hydroxymethyl-tetrahydro-pyran-2-yl)-ethylamino]-propyl}-nicotinamide]	63
COc1cnc(-c2cc(Cl)ccc2F)nc1Nc1ccncc1C(=O)NCCCN(C(=O)CC1O[C@H](CO)[C@@H](O)[C@H](O)[C@H]1O)C(C)C (some centres unmarked) [Compound 149, 4-[2-(5-Chloro-2-fluoro-phenyl)-5-methoxy-pyrimidin-4-ylamino]-N-(3-[isopropyl-[2-(3,4,5-trihydroxy-6-hydroxymethyl-tetrahydro-pyran-2-yl)-acetyl]-amino]-propyl)-nicotinamide]	47

The remaining lines, values ahead:

IC50 [nM]	SMILES
1540	CNC(=O)NCCNC(=O)c1cnccc1Nc1nc(-c2cc(Cl)ccc2F)ncc1OC [Compound 68, 4-[2-(5-chloro-2-fluoro-phenyl)-5-methoxy-pyrimidin-4-ylamino]-N-[2-(3-methyl-ureido)-ethyl]nicotinamide]
470	COc1cnc(-c2cc(Cl)ccc2F)nc1Nc1ccncc1C(=O)NCC(C)(C)O [Compound 58, 4-[2-(5-Chloro-2-fluoro-phenyl)-5-methoxy-pyrimidin-4-ylamino]-N-(2-hydroxy-2-methyl-propyl)-nicotinamide]
40	CC(C)c1cnc(-c2cc(Cl)ccc2F)nc1Nc1ccncc1C(=O)NCCCN1CC[C@@H](O)C1 [Compound 113, 4-[2-(5-Chloro-2-fluoro-phenyl)-5-isopropyl-pyrimidin-4-ylamino]-N-[3-(3-hydroxy-pyrrolidin-1-yl)-propyl]-nicotinamide]
120	COc1cnc(-c2cc(Cl)ccc2F)nc1Nc1ccncc1C(=O)NCCCN/C(=N/C#N)NC(C)C [Compound 42]
7370	COc1cnc(-c2cc(Cl)ccc2F)nc1Nc1ccncc1C(=O)N1CCN(CCO)CC1 [Compound 116, {4-[2-(5-Chloro-2-fluoro-phenyl)5-methoxy-pyrimidin-4-ylamino]pyridin-3-yl}-[4-(2-hydroxy-ethyl)-piperazin-1-yl]-methanone]
10	COc1cnc(-c2cc(Cl)ccc2F)nc1Nc1ccncc1C(=O)NCCCNCCC1O[C@H](CO)[C@@H](O)[C@H](O)[C@@H]1O (some centres unmarked) [Compound 154, 4-[2-(5-Chloro-2-fluoro-phenyl)-5-methoxy-pyrimidin-4-ylamino]-N-{3-[2-(3,4,5-trihydroxy-6-hydroxymethyl-tetrahydro-pyran-2-yl)-ethylamino]-propyl}-nicotinamide]

same assay, conditions: 10 uM ATP, 170 nM TGFβ R1, room temperature 20 minutes, read-out: IC50 for Kinase Inhibition

SMILES	IC50 [nM]
CC(C)c1cnc(-c2cc(Cl)ccc2F)nc1Nc1ccncc1C(=O)NC[C@H](C)OC(=O)[C@@H](N)C(C)C [Compound 206, 2-Amino-3-methyl-butyric acid 2-({4-[2-(5-chloro-2-fluoro-phenyl)-5-isopropyl-pyrimidin-4-ylamino]-pyridine-3-carbonyl}-amino)-1-methyl-ethyl ester]	72
CC(=O)CNC(=O)c1cnccc1Nc1nc(-c2cc(Cl)ccc2F)ncc1C(C)C [Compound 169, 4-[2-(5-Chloro-2-fluoro-phenyl)-5-isopropyl-pyrimidin-4-ylamino]-N-(2-oxo-propyl)-nicatinamide]	3

The remaining lines, values ahead:

IC50 [nM]	SMILES
5	CC(C)c1cnc(-c2cc(Cl)ccc2F)nc1Nc1ccncc1C(=O)NCCCN1CCC[C@H]1C(=O)N(C)C [Compound 171, 4-[2-(5-Chloro-2-fluoro-phenyl)-5-isopropyl-pyrimidin-4-ylamino]-N-[3-(2-dimethylcarbamoyl-pyrrolidin-1-yl)-propyl]-nicotinamide]
28	CCNC(=O)[C@@H]1CCCN1CCCNC(=O)c1cnccc1Nc1nc(-c2cc(Cl)ccc2F)ncc1OC [Compound 167, 4-[2-(5-Chloro-2-fluoro-phenyl)-5-methoxy-pyrimidin-4-ylamino]-N-[3-(2-ethylcarbamoyl-pyrrolidin-1-yl)-propyl]-nicotinamide]

Reference: patent publication US20060281763A1, “Carboxamide inhibitors of TGFbeta” (priority 2005, published 2006)
